Data set [1] can be described thus: AUC (0 to 24 hrs) in rat plasma at 10 mg/kg, po. More on the design: time < 24 hr, dose 10 mg/kg, route oral. Format: ADME, organism-based.
A further data set addresses T1, Adenosine receptor A1 (Homo sapiens, UniProt P30542).
T1 sequence (P30542 whole entry): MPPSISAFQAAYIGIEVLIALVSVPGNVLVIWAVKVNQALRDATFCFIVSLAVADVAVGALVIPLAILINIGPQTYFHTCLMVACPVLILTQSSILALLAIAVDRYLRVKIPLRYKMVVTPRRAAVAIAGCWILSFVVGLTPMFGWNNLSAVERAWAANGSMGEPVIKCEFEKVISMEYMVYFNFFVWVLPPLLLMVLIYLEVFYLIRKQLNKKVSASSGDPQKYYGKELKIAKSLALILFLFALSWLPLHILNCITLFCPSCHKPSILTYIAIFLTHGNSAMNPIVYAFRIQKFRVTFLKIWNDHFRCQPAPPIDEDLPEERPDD
Description: Displacement of [3H]DPCPX from human adenosine A1 receptor expressed in HEK293 cells. It counts as cell-based.

For the next data set, the species on record is Homo sapiens. The experiment in a line: Selectivity ratio of Ki for human adenosine A1 receptor to Ki for human adenosine A2A receptor.
Data set [2] can be described thus: Metabolic stability in human liver microsomes assessed as intrinsic clearance by LC-MS/MS analysis. It counts as ADME, Microsome. (Liver microsomes are a subcellular fraction often used to study metabolism.)
A short description of data set [3]: Metabolic stability in rat liver microsomes assessed as intrinsic clearance by LC-MS/MS analysis. Format: ADME, Microsome.
In data set [4] the target is Voltage-gated inwardly rectifying potassium channel KCNH2 (Homo sapiens, UniProt Q12809). The experiment in a line: Inhibition of human ERG by electrophysiology assay.
The subject of data set [5] is Rattus norvegicus. The experiment in a line: Inhibition of haloperidol-induced catalepsy in rat at 10 mg/kg, po after 2 hrs. Format: functional. More on the design: scale not given: the % may be the effect or the level left.
The species entered for data set [6] is Rattus norvegicus. The experiment in a line: Inhibition of haloperidol-induced catalepsy in rat assessed as minimal effective dose. Format: functional. Conditions: read-out: MED.
In data set [7] the target is Adenosine receptor A2a (Rattus norvegicus, UniProt P30543). Description: Displacement of [3H][…] from rat adenosine A2A receptor expressed in CHO cells. It counts as cell-based. Background: Loss of bound radioactivity is the signal in a displacement assay; it reports binding, not function.
Data set [8] has as its target T2, Adenosine receptor A2a (Homo sapiens, UniProt P29274). The experiment in a line: Antagonist activity at human adenosine A2A receptor expressed in CHO cells assessed as inhibition of CGS-21680-induced cAMP production. It counts as functional, cell-based. (In general: Cyclic AMP is a second messenger, typically raised through Gs and lowered through Gi signalling.)

Data set [9] concerns Rattus norvegicus. The experiment in a line: Inhibition of haloperidol-induced catalepsy in rat at 1 mg/kg, po. Format: functional, organism-based. Also noted: dose 1 mg/kg.
A short description of data set [10]: Aqueous solubility at pH >= […]. Format: physicochemical. Conditions: buffer.
Data set [11] concerns the target T2, Adenosine receptor A2a. Description: Displacement of [3H][…] from human adenosine A2A receptor expressed in HEK293 cells. Format: cell-based.
In data set [12] the test system is Rattus norvegicus. The experiment in a line: Inhibition of haloperidol-induced catalepsy in rat at 3 mg/kg, po. Format: functional, organism-based. More on the design: dose 3 mg/kg.
Data set [13] has as its target T3, Cytochrome P450 3A4 (Homo sapiens, UniProt P08684).
Description: Inhibition of CYP3A4 in human liver microsomes by LC-MS/MS analysis
A short description of data set [14]: Aqueous solubility in phosphate-buffered saline at pH 7.4. It counts as physicochemical.
Data set [15] in a line: Plasma concentration in rat at 10 mg/kg, po after 2 hrs. It counts as ADME, organism-based. Also noted: dose 10 mg/kg, route oral.
The nature of data set [16]: Drug concentration in rat brain at 10 mg/kg, po after 2 hrs. Format: ADME, organism-based. Particulars: read-out: Drug uptake. More on the design: dose 10 mg/kg, route oral.
A short description of data set [17]: Dissociation constant, pKa of the compound. Format: physicochemical.
The target in data set [18] is T3, Cytochrome P450 3A4. The experiment in a line: Inhibition of recombinant CYP3A4-catalyzed dealkylation of BFC assessed as formation of 7HFC by microplate fluorescence technique. Format: ADME. Conditions: recombinant enzyme.
In data set [19] the test system is Rattus norvegicus. Description: Inhibition of haloperidol-induced catalepsy in rat at 30 mg/kg, po after 2 hrs. Format: functional.
Data set [20] is described as follows: Permeability across MDCK cell membrane by cell-based MDR assay. It counts as ADME, Canis lupus familiaris. Particulars: dog, MDCK-MDR1; read-out: permeability.
The nature of data set [21]: Plasma concentration in rat at 30 mg/kg, po after 2 hrs. It counts as ADME, organism-based. More on the design: dose 30 mg/kg, route oral.
Data set [22] is described as follows: Drug concentration in rat brain at 30 mg/kg, po after 2 hrs. More on the design: dose 30 mg/kg, route oral. Format: ADME, organism-based. Particulars: read-out: Drug uptake.
A further data set relates to Liver microsomes. Description: Induction of glutathione adducts formation in human liver microsomes. More on the design: species or system Microsome.
Data set [23] relates to Rattus norvegicus. The experiment in a line: Potentiation of L-dopa-induced rotational behavior in unilaterally 6-hydroxydopamine-lesioned po dosed Wistar rat pretreated 30 mins before L-dopa challenge measured over 5 hrs. It counts as functional, organism-based.
For data set [24], the system named is Rattus norvegicus. Description: Potentiation of L-dopa-induced rotational behavior in unilaterally 6-hydroxydopamine-lesioned po dosed Wistar rat assessed as minimal effective dose pretreated 30 mins before L-dopa challenge measured over 5 hrs. It counts as functional. Particulars: read-out: MED.
The nature of data set [25]: AUC ((0 to 24 hrs)) in mouse at 300 mg/kg, po. Conditions: plasma. More on the design: time < 24 hr, dose 300 mg/kg, route oral. Format: ADME, organism-based.
The nature of data set [26]: Solubility at pH 3.7. Particulars: buffer. Format: physicochemical.
A short description of data set [27]: AUC ((0 to 24 hrs)) in dog at 30 mg/kg, po. It counts as ADME, organism-based, Canis lupus familiaris. Also noted: time < 24 hr, dose 30 mg/kg, route oral. Conditions: plasma.

In brackets after ≈: the same amount, converted by molar mass. Activity calls are given as the source filed them. The calls are words filed in the database; no cut-off is given here.

As usually defined, the AUC(0-t) is the area under the concentration-time curve up to a stated or last time point. As a reminder, the Ki is a dissociation constant, usually derived from enzyme kinetics or from competition with a known ligand. As usually defined, the CLint scaled is the capacity of the preparation to metabolise the compound, expressed as a volume cleared per time. Broadly, the IC50 is the point on the concentration scale where inhibition reaches its midpoint. In general, solubility refers to the dissolved amount per volume that the medium holds. One may read the pKa as the pH at which an ionisable group is half protonated. Usually inhibition in vivo stands for the drop in the measured response relative to a control, in per cent.

Chain of Voltage-gated inwardly rectifying potassium channel KCNH2 (Q12809 whole entry): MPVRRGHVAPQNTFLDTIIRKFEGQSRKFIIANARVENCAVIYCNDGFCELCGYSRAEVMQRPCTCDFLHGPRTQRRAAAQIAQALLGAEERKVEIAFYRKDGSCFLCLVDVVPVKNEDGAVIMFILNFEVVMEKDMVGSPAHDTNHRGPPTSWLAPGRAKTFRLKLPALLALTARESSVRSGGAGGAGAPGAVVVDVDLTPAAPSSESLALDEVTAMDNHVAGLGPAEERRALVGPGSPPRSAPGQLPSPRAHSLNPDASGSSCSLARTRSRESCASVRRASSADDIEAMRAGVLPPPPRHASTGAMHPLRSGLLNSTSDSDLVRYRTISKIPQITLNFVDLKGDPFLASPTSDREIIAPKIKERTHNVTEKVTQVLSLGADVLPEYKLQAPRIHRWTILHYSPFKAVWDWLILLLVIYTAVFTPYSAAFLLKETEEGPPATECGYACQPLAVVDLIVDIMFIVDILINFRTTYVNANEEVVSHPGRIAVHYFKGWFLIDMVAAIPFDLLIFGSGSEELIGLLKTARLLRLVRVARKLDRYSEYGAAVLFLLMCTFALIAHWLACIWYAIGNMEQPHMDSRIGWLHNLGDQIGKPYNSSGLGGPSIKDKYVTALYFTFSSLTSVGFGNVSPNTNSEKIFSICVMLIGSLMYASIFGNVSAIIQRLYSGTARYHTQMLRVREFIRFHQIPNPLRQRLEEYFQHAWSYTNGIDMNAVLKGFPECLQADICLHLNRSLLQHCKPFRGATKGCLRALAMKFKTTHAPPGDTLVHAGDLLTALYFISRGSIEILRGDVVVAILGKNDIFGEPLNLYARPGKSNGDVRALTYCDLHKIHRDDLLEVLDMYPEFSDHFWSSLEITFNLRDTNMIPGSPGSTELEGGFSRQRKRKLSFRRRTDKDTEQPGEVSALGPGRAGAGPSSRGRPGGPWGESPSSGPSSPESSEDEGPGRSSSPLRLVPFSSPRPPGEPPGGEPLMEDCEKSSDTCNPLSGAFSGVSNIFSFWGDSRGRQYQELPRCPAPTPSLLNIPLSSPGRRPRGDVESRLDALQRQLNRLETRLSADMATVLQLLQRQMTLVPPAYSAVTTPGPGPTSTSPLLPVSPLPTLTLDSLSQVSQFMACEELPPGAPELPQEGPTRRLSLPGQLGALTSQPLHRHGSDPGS
T2 sequence (P29274 whole entry): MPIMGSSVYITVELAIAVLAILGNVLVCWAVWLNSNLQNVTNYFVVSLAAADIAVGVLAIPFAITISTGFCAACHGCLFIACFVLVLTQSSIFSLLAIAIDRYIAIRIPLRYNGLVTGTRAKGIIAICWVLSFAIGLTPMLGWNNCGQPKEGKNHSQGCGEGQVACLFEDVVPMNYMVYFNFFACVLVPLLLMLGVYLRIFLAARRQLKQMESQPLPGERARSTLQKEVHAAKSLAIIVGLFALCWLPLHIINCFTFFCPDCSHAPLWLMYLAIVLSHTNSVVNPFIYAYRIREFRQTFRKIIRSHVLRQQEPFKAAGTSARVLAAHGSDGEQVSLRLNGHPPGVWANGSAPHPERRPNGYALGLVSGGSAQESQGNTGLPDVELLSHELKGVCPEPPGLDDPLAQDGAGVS
Chain of Adenosine receptor A2a (Rattus norvegicus, UniProt P30543) (P30543 whole entry): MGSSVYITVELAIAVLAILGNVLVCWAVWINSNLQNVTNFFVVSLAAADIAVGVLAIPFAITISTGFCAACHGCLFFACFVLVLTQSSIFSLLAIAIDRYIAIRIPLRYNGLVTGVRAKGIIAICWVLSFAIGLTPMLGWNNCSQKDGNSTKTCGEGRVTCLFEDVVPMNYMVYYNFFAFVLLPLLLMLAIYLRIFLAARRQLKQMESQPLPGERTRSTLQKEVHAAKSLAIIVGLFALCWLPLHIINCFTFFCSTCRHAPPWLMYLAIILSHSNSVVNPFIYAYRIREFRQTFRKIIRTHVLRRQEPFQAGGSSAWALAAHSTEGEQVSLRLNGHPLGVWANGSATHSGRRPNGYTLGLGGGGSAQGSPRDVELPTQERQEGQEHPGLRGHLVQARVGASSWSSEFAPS
T3 sequence (P08684 whole entry): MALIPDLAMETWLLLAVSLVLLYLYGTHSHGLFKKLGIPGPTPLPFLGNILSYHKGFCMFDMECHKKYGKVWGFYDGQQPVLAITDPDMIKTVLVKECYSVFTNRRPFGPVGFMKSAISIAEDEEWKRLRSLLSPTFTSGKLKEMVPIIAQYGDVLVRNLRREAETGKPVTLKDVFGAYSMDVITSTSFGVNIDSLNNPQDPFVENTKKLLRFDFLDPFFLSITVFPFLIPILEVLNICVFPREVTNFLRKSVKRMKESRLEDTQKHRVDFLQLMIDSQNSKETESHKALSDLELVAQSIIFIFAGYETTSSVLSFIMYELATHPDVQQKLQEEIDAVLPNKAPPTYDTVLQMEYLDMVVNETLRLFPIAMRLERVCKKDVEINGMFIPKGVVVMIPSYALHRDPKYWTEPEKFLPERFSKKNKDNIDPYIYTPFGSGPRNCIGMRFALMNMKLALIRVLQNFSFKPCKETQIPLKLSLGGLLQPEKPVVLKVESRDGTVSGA

In turn, `COc1cncc(-c2cc(NC(C)=O)nc(-n3nc(C)cc3C)n2)c1` yielded an AUC(0-t) at 24 h in data set [1] of 1430 ng·h/mL. Also, the Ki on Adenosine receptor A1 amounted to 190 nM; on Adenosine receptor A2a [7] it was 62 nM; on Adenosine receptor A2a [11], 2.3 nM. Also, the Ratio Ki in the data set listed under Homo sapiens is 82. Also, the CLint scaled in data set [2] is 35 mL/min/kg; in data set [3], 120 mL/min/kg. For the same compound, the IC50 was 24000 nM in data set [4], 57 nM on Adenosine receptor A2a [8] and 18000 nM against Cytochrome P450 3A4 [13]. In the data set with Rattus norvegicus [5], this compound gave an Activity of 64%. In addition, the minimal effective dose in the data set filed under Rattus norvegicus [6] stood at 1 mg/kg. Besides, the result in the data set on Rattus norvegicus [9] and with Rattus norvegicus [12] was Active. The compound also gave a solubility in [10] of under 10 µg/mL.

Turning to `CC(=O)Nc1cc(-c2cccc(N3CCOCC3)n2)nc(-n2nc(C)cc2C)n1`, the Ki on Adenosine receptor A1 was determined as 130 nM; on Adenosine receptor A2a [7], 10 nM; at Adenosine receptor A2a [11], 0.83 nM. The Ratio Ki in the data set listed under Homo sapiens was 155. Also, the CLint scaled in data set [2] came out at 3 mL/min/kg; in data set [3], 25 mL/min/kg. Also, the Activity entry in data set [4] (human) is on record as “Not Active”; with Rattus norvegicus [5], 55%; at Cytochrome P450 3A4 [18], “Not Active”. Further, the concentration in solution in [14] (solubility) was 140 µg/mL (≈ 356 µM). Moreover, the minimal effective dose in the data set listed under Rattus norvegicus [6] was found to be 3 mg/kg. In addition, the concentration at 2 h amounted to 150 ng/mL in data set [15] and 170 ng/g in data set [16]. Moreover, the figures for the IC50 at Adenosine receptor A2a [8] and against Cytochrome P450 3A4 [13] were 13 nM and over 20000 nM, respectively. The compound also yielded a pKa in [17] of 2.9.

In the case of `CC(=O)Nc1cc(-c2cccc(N3CCN(C)CC3)n2)nc(-n2nc(C)cc2C)n1`, the Ki on Adenosine receptor A1 amounted to 120 nM; on Adenosine receptor A2a [7], 7 nM; at Adenosine receptor A2a [11], 0.71 nM. In addition, in the data set filed under Homo sapiens, the Ratio Ki stood at 175. Moreover, the CLint scaled in [2] is 3 mL/min/kg; in [3], 25 mL/min/kg. Also, the IC50 is 540 nM in data set [4], 7 nM on Adenosine receptor A2a [8] and over 20000 nM on Cytochrome P450 3A4 [13]. In data set [14], the solubility was 240 µg/mL (≈ 590 µM). Moreover, the concentration at 2 h is 53 ng/mL in data set [15] and 91 ng/g in data set [16]. Further, the outcome in the data set with Rattus norvegicus [19] was inactive. For the same compound, the pKa in data set [17] turned out to be 7.6. In addition, the Papp in data set [20] was 15.4 ×10⁻⁶ cm/s.

On to `CC(=O)Nc1cc(-c2cccc(N3CCC(O)CC3)n2)nc(-n2nc(C)cc2C)n1`, for which the Ki was 470 nM on Adenosine receptor A1, 10 nM at Adenosine receptor A2a [7] and 1.9 nM on Adenosine receptor A2a [11]. In addition, the Ratio Ki in the data set listed under Homo sapiens came out at 247. The CLint scaled in [2] is 43 mL/min/kg; in data set [3], 230 mL/min/kg. Also, the concentration in solution in data set [14] (solubility) was 200 µg/mL (≈ 491 µM). Also, in the data set filed under Rattus norvegicus [6], the minimal effective dose is 30 mg/kg. For the same compound, the concentration at 2 h in [15] came to 16 ng/mL; in data set [16] it was 9 ng/g; in [21], 180 ng/mL; in data set [22] it was 91 ng/g. In addition, in the data set with Rattus norvegicus [19], the inhibition in vivo at 30 mg/kg was 90%. In addition, the IC50 on Adenosine receptor A2a [8] is 22 nM; at Cytochrome P450 3A4 [13], over 20000 nM.

For the compound `COC1CCN(c2cccc(-c3cc(NC(C)=O)nc(-n4nc(C)cc4C)n3)n2)CC1`, the Ki on Adenosine receptor A1 came out at 85 nM; at Adenosine receptor A2a [11], 0.44 nM. Besides, the CLint scaled worked out at 41 mL/min/kg in data set [2] and 540 mL/min/kg in data set [3]. Moreover, the Activity was 88% with Rattus norvegicus [5], “Not Active” in the data set with Liver microsomes and “Dose-dependent effect” in the data set with Rattus norvegicus [23]. Moreover, the results for the minimal effective dose in the data set filed under Rattus norvegicus [6] and in the data set with Rattus norvegicus [24] were 1 mg/kg and 3 mg/kg, respectively. Also, the outcome in the data set with Rattus norvegicus [9] was Active. In addition, the AUC(0-t) at 24 h in data set [25] was 25700 ng·h/mL; in [27] it was 3400 ng·h/mL. This compound showed a solubility in data set [26] of 1000 µg/mL (≈ 2370 µM).

For the origin of these results see ChEMBL document CHEMBL1152277, “Lead optimization of 4-acetylamino-2-(3,5-dimethylpyrazol-1-yl)-6-pyridylpyrimidines as A2A adenosine receptor antagonists for the treatment of Parkinson's disease” (J Med Chem, 2008).
